Measured values reported in patent US10766888B1, “HMOX1 inducers” (Mitobridge Inc., priority 2019, dated 2020).

Experiments:
VCAM-1 = assay: Gene expression (VCAM-1) in primary human endothelial cells stimulated with TNFa; format: cell-based; conditions: HPAEC
Description: Example 150. Gene Expression in Primary Human Endothelial Cells
Inflammatory conditions in endothelial cells increase expression of adhesion molecules, such as VCAM-1, ICAM-1 and E-selectin through NF-kB signaling. HMOX1−/− endothelial cells show increased expression of VCAM-1 in response to TNF stimulation, as compared to HMOX+/+endothelial cells. See Seldon et al., J Immunol Dec. 1, 2007, 179 (11) 7840-7851.
Primary human pulmonary artery endothelial cells (HPAEC) (Lonza # CC-2530) were seeded in 12-well plates (TrueLine # TR5001) at 200 k cells per well and placed at 37° C. in 5% CO2. 18-24 hr post seeding, cells were treated with the compound of Example 17 via media change. 24 hr post treatment with the compound, cells were treated with 10 ng/mL TNFa (Invitrogen # PHC3015 in H2O) alone or with the compound of Example 17. […] 20 ng cDNA was mixed with water, iQ™ SYBR® Green Supermix (BioRad #170-8886), and 300 nM primer (IDT # NM_001078) for a total 10 ul reaction and loaded into 384-well white qPCR plates and subsequently analyzed using BioRad CFX384. […] To calculate fold change, the ΔCt on a per sample basis was calculated as Ct (Gene of interest)−Ct (Average of reference genes). The ΔΔCt was then calculated as ΔCt (experimental sample)−Average ΔCt (control group). Fold change was calculated as 2^−ΔΔCT.

HMOX1 = HMOX1 mRNA expression in HepG2 cells (Nanostring); format: cell-based, human; conditions: 24 hours treatment, mRNA fold change vs DMSO
Description: Example 147. HMOX1 Inducers of the Invention Strongly Increase In Vitro Expression of HMOX1
RNA Isolation and Quantification of Gene Expression
HepG2 cells were seeded at 250 k/well in 12-well tissue culture plates coated with collagen (collagen I, rat tail (thin plate coating); ENZO Life Sciences) for approximately 24 hours. The seeded cells were then treated with dose titration of the compound of Example 17 or dimethyl fumarate (DMF) (a Nrf2 activator; Fisher Scientific) via media change, with biological triplicates performed for each treatment. After approximately 24 hours of treatment, cells were visually inspected to confirm that no toxicity occurred with compound treatment. The treated cells were washed with PBS, aspirated, parafilmed and frozen at −80° C. prior to RNA isolation. RNA was isolated using Machery-Nagel isolation kit (NucleoSpin® RNA: catalog 740955.250) and then quantitated using ThermoFisher Nanodrop.
RNA was diluted for Nanostring gene expression analysis. […]
The relative mRNA levels of the HMOX1 gene in HepG2 cells treated with the compound of Example 17 or DMF were measured according to the methods described above. […]

## Cn1c(Nc2nc3ccccc3o2)nc2cc(C(=O)NCCOCCO)ccc21 [Example 17, 2-(benzo[d]oxazol-2-ylamino)-N-(2-(2-hydroxyethoxy)ethyl)-1-methyl-1H-benzo[d]imidazole-5-carboxamide]
VCAM-1; 24 hr pre-treatment, 10 ng/mL TNFa 4 hours
  TNF-α mediated endothelial cell activation / VCAM-1 expression (in words): reduced this TNF-α mediated endothelial cell activation
VCAM-1; after 4 hours of TNFa treatment
  toxicity by visual inspection of cells: no toxicity
HMOX1
  HMOX1 expression compared with DMF (in words): much more strongly than DMF
